According to ChEMBL document CHEMBL1122731, “Potential synthetic codeine substitutes: (-)-3-O-aryl-N-methylmorphinans” (J Med Chem, 1984):

Experiments:
Format in all cases: functional
Mus musculus [1] = test: Compound was tested for analgesic activity by tail-flick test after subcutaneous administration in mice; settings: sc
Mus musculus [2] = test: Compound was tested for analgesic activity by writhing test after subcutaneous administration in mice; settings: sc
Mus musculus [3] = test: Compound was tested for analgesic activity by tail-flick test after peroral administration in mice; settings: po
Mus musculus [4] = test: Compound was tested for analgesic activity by writhing test after peroral administration in mice; settings: po

SMILES	ED50 (Mus musculus [1]) [mg/kg]	ED50 (Mus musculus [2]) [mg/kg]	ED50 (Mus musculus [3]) [mg/kg]	ED50 (Mus musculus [4]) [mg/kg]
COc1ccccc1Oc1ccc2c(c1)[C@@]13CCCC[C@H]1[C@@H](C2)N(C)CC3	24.4	0.49	–	–
CN1CC[C@]23CCCC[C@H]2[C@H]1Cc1ccc(Oc2cccc(F)c2)cc13.O.O=C(O)C(O)C(O)C(=O)O	71	1.85	–	–
COc1ccc2c3c1O[C@H]1[C@@H](O)C=C[C@H]4[C@@H](C2)N(C)CC[C@@]341.COc1ccc2c3c1O[C@H]1[C@@H](O)C=C[C@H]4[C@@H](C2)N(C)CC[C@@]341.O.O=P(O)(O)O.O=P(O)(O)O [CODEINE PHOSPHATE]	–	2.3	119	24
COc1cccc(Oc2ccc3c(c2)[C@@]24CCCC[C@H]2[C@@H](C3)N(C)CC4)c1	39.7	2.5	–	–
CN1CC[C@]23CCCC[C@H]2[C@H]1Cc1ccc(Oc2ccc(F)cc2)cc13	37.3	1	–	–
CCO.CN1CC[C@]23CCCC[C@H]2[C@H]1Cc1ccc(Oc2ccccc2O)cc13.O=C(O)C(O)C(O)C(=O)O	11.4	1.8	–	–
CN1CC[C@]23c4c5ccc(O)c4O[C@H]2[C@@H](O)C=C[C@H]3[C@H]1C5.CN1CC[C@]23c4c5ccc(O)c4O[C@H]2[C@@H](O)C=C[C@H]3[C@H]1C5.O=S(=O)(O)O	–	0.46	31.2	–
CN1CC[C@]23CCCC[C@H]2[C@H]1Cc1ccc(Oc2ccccn2)cc13.O=C(O)C(O)C(O)C(=O)O	10.1	1.1	–	–
CCO.CN1CC[C@]23CCCC[C@H]2[C@H]1Cc1ccc(Oc2cccc(O)c2)cc13.O=C(O)C(O)C(O)C(=O)O	80.1	9	–	–
CN1CC[C@]23CCCC[C@H]2[C@H]1Cc1ccc(Oc2ccccc2F)cc13.O=C(O)C(=O)O	23.3	3	–	–
CN1CC[C@]23CCCC[C@H]2[C@H]1Cc1ccc(Oc2ccccc2)cc13.O=C(O)C(O)C(O)C(=O)O	19.7	1.25	51.7	2.3
CN1CC[C@]23CCCC[C@H]2[C@H]1Cc1ccc(O)cc13.O=C(O)C(O)C(O)C(=O)O	1.21	0.11	8.5	1.4
Br.COc1ccc2c(c1)[C@@]13CCCCC1[C@@H](C2)N(C)CC3 (some centres not stated) [LEVOMETHORPHAN HYDROBROMIDE]	–	0.64	5.27	1.5
Cc1ccc(Oc2ccc3c(c2)[C@@]24CCCC[C@H]2[C@@H](C3)N(C)CC4)cc1.Cl	–	23	–	–
COc1ccc(Oc2ccc3c(c2)[C@@]24CCCC[C@H]2[C@@H](C3)N(C)CC4)cc1	25	2.1	–	–
CN1CC[C@]23CCCC[C@H]2[C@H]1Cc1ccc(Oc2ccc(O)cc2)cc13.Cl	6.69	1.3	–	–
